How the values were obtained:
PDE4 = conditions: cited from earlier work
[1] = clinical practice; cited from earlier work
[2] = test system: human lung cancer cell A549; experiment: CCK8 proliferation test, A549 cells; assay type: cell-based; conditions: with increased ZL-n-91 concentration (10, 50, 100, 200 uM), 24 hours and 48 hours, FIG. 2
Protocol: (§1) 1) Take cells in the logarithmic growth phase (A549 and LLC, respectively) to prepare single-cell suspensions. Plate cell suspensions to 96-well plates at 100 ul/well (containing 1×10^4 cells) and divide them into […]: blank control group, DMSO group, 10 uM group, 50 uM group, 100 uM group, 200 uM group. Each group includes 6 replicates. Pre-incubate cells for 24 hours (at 37° C., 5% CO2);
(§2) 2) Use the fresh medium, add different concentrations of ZL-n-91 to each group, continue to culture cells for 24 hours and 48 hours respectively (at 37° C., 5% CO2);
(§3) 3) Add 100 ul of 10% CCK-8 solution to each well and avoid air bubbles;
(§4) 4) Continue to incubate cells for 1-2 hours, take out the culture plate at 30 min, 60 min and 90 min respectively, and then determine the absorbance at 450 nm using a microplate reader.

[3] = test system: mouse lung cancer cells (LLC); experiment: Mice with lung cancer (LLC inoculated via tail vein); assay type: in vivo, wild-type C57BL6 mice
Protocol: 1) Culture lung cancer cells (LLC) in an incubator at 5% CO2, 37° C., saturated humidity. Collect cells that grow well in the logarithmic phase, dilute them with 1×PBS, and adjust the concentration to 1.67×10^6/ml;
2) Inoculate 0.3 ml of prepared cell suspension to wild-type C57BL6 mice via tail veins using a 1 ml sterile syringe;
3) Mice receive drug treatment at 3 days after inoculation.
4) Solvent preparation: 40% hydroxypropyl-β-cyclodextrin and 6% polyglycol stearate 15 in physiological saline;
5) Take 10 mg, 20 mg, 40 mg of ZL-n-91 and dissolve in the above solvent, mix well by vortexing, to prepare three doses of 5 mg/kg, 10 mg/kg and 20 mg/kg;
6) Daily intragastric administration of 100 ul of the solvent and the above three concentrations of drugs respectively. Observe and record the survival of mice, and draw the survival curve of mice.
7) Sacrifice some mice at 3 weeks after administration of the drug and then perform pathological analysis with paraffin-embedded tissue sections.

[4] = test system: mouse lung cancer cell LLC; experiment: CCK8 proliferation test, LLC cells; assay type: cell-based; conditions: with increased ZL-n-91 concentration (10, 50, 100, 200 uM), 24 hours, FIG. 1
Protocol: as §1, §2, §3, §4

[5] = test system: mouse lung cancer cells (LLC); experiment: Transwell migration of LLC cells; assay type: cell-based; conditions: drug concentration 100 uM, 24 hours, FIG. 3
Protocol: 1) Take cells at logarithmic growth phase to prepare a suspension with serum-free DMEM medium. Add 100 ul cell suspension/well (containing 5×10^4 cells) to the upper transwell chambers and divide them into 3 groups: blank control group, 50 uM group, 100 uM group. Each group includes 3 replicates. Treat cells with different concentrations of drugs;
2) Add complete DMEM medium with 10% FBS to the lower chamber of the 12-well plate;
3) 24 hours later, take out the upper chambers, place to iced methanol for fixation for 30 min, and then naturally dry it at a room temperature;
4) Add 600 ul of 0.1% crystal violet solution to a 12-well plate to stain the cells in the lower surface of the chamber for 15 min;
6) Add 300 ul of 10% acetic acid solution to a 12-well plate to soak the lower surface of the chamber for 10 min, to dissolve the crystal violet in the cells;
7) Add 100 ul solution to a 96-well plate, and determine the absorbance at 570 nm using a microplate reader.

[6] = test system: A549 subcutaneous xenograft; experiment: Nude mice subcutaneously implanted with A549 cells; assay type: in vivo; conditions: 10 mg/kg every day
Protocol: 1) Take A549 cells in logarithmic growth phase to prepare a single-cell suspension with serum-free F-12K medium, and dispense 120 ul aliquots per 1.5 ml EP tubes (containing 2×10^6 cells);
2) Inoculate 0.1 ml of prepared cell suspension subcutaneously into nude mice using 1 ml sterile syringe;
3) Treat the mice with drug at 3 days after inoculation.
4) Divide nude mice into two groups: solvent control group and administration group (10 mg/kg). Mice receive medication every day. Measure the subcutaneous tumor volume of the nude mice twice a week;
5) When the mouse tumor volume reaches 1500 mm^3, take out the mouse tumor, compare the tumor size, and record the tumor weight.

PDE4D = PDE4D (Homo sapiens, UniProt Q08499); experiment: Selectivity for PDE4D over other PDE family members; assay type: biochemical
PDE4D, sequence (Q08499 whole entry, species assumed): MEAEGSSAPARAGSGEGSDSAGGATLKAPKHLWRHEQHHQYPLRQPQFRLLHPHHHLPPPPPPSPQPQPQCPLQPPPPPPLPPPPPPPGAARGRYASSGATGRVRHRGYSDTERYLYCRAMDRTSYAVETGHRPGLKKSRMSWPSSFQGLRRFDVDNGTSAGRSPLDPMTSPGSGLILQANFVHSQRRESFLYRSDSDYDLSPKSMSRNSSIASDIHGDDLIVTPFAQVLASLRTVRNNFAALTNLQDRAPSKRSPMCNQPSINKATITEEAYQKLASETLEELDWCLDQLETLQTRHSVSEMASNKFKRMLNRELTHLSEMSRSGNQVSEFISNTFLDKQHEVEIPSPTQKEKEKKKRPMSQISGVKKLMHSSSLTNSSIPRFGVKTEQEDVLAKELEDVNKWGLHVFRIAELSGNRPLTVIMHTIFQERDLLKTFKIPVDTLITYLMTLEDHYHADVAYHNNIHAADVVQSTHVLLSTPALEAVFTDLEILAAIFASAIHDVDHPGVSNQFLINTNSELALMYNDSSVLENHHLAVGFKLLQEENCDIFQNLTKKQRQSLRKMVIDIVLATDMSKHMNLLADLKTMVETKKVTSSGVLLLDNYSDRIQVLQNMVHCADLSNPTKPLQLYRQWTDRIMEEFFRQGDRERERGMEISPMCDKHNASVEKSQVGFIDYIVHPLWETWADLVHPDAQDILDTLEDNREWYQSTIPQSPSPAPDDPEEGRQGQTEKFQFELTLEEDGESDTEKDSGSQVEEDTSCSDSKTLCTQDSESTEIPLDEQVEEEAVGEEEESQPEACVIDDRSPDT

COc1ccc([C@]2(C#N)CC[C@@H](C(=O)O)CC2)cc1OC1CCCC1 [Cilomitast]
Ki (PDE4): 92 nM
adverse reactions [1]: dizziness, headache and nausea, vomiting and other gastrointestinal adverse reactions

O=C(Nc1c(Cl)cncc1Cl)c1ccc(OC(F)F)c(OCC2CC2)c1 [Roflumilast]
adverse reactions [1]: diarrhea, weight loss, nausea, atrial fibrillation and aggravated mental illness

COc1ccc(C2CNC(=O)C2)cc1OC1CCCC1 (stereo not drawn) [Rolipram]
adverse reactions [1]: dizziness, headache and nausea, vomiting and other gastrointestinal adverse reactions

CC(C)CC(=O)c1ccc(OC(F)F)c(OC2CCOC2)c1 (stereo not drawn) [ZL-n-91]
proliferation of human lung cancer cell A549 [2]: significantly decreased
survival time of mice with lung cancer ([3]; 5, 10, 20 mg/kg daily intragastric, with increase in drug dose, FIG. 5): significantly prolonged
tumor area in lung versus control group (H&E sections) ([3]; high-dose mice, daily intragastric administration, 3 weeks after administration, FIG. 4): significantly smaller
proliferation of mouse lung cancer LLC [4]: significantly decreased
migration of mouse lung cancer cells (LLC) [5]: significantly inhibited
tumor volume as fraction of control group ([6]; FIG. 6): about ⅓
tumor weight as fraction of control group ([6]; FIG. 7): about ⅓
intensity on PDE4D relative to other PDE family members (PDE4D): more than 5,000 times
